Among the data in US4870175A, “6-substituted alkoxy-2-oxo-1,2-dihydroquinoxaline derivatives” (Toyo Jozo Kabushiki Kaisha, priority 1987, dated 1989) are Inhibitory ratio and inhibition values, retold here.

The structures appear in SMILES notation. Like-named read-outs stand apart in the source and are kept apart here.

In assay [1] the test system is cyclic AMP/phosphodiesterase. Kind of assay: Inhibitory action of cyclic AMP/phosphodiesterase (crude enzyme fraction from sonicated rabbit platelets). The class given is biochemical. As to conditions: 40 min. The method, then: The pharmacological activity of the present compounds [1] is illustrated below. (1) Inhibitory action of cyclic AMP/phosphodiesterase:
A mixture of 2 mM MgCl2 /40 mM Tris-buffer (pH 7.5) 700 μl, enzyme solution (a crude enzyme fraction obtained from sonicated rabbit platelets) 100 μl, and a test sample solution (compound [1] dissolved in 50% aqueous methanol) 100 μl is incubated at 30° C. for 5 mins. 3', 5'-cyclic AMP 100 μl (50 μg) is added thereto and the mixture is further incubated for 40 mins. The reaction is stopped by heating 100° C. for 5 mins. The amount of 5'-AMP in the supernatant obtained by centrifugation at 3000 rpm for 5 mins. is measured using HPLC.
As shown in that table, the compound of the present invention has cyclic AMP/phosphodiesterase inhibitory activity at 1-10 μg/ml.

Assay [2] concerns rabbit platelet-rich plasma. Kind of assay: Platelet aggregation inhibition (rabbit platelet-rich plasma, aggregometer). In kind it is cell-based. As to conditions: Oryctolagus cuniculus, compound final concentration 10 μM, read-out: Inhibitory ratio. The method, then:
(2) Platelet aggregation inhibition:
A rabbit platelet-rich plasma (5×10^5 /mm^3), to which was added 1/10 volume of a 3.8% sodium citrate solution, 216 μl, is incubated in an aggregometer at 37° C., 1000 rpm, for 3 mins. A test sample solution 12 μl (final concentration 10 μM) is added thereto and the mixture is further incubated for 3 mins., and collagen (aggregation agent) 2.5 μg/ml, ADP 2.5 μM, platelet activating factor (PAF) 0.05 μg/ml or 0.25 mM arachidonic acid (A.A.) 12 μl is added thereto as an aggregating agent, and the platelet aggregation activity is measured.

[3] abbreviates: aggregating agent PAF 0.05 μg/ml.
The mark [4] stands for this setting: aggregating agent arachidonic acid (A.A.) 0.25 mM.
The mark [5] stands for this setting: aggregating agent collagen 2.5 μg/ml.

Turning to `CN(C(=O)CCCOc1ccc2[nH]c(=O)c(-c3ccccc3)nc2c1)C1CCCCC1` [Compound 986], the results for the Inhibitory ratio in assay [1] (1 μg/ml) and in assay [1] (10 μg/ml) were 66.2% and 80.5%, respectively.

Consider `O=C(CCCCOc1ccc2[nH]c(=O)cnc2c1)N(CCO)C1CCCCC1` [Compound 923], for which the values for the Inhibitory ratio in assay [1] (1 μg/ml), in assay [1] (10 μg/ml) and in assay [1] (100 μg/ml) were 43.7%, 81.8% and 92.4%, respectively. Further, the inhibition at 10 µM in assay [2] (aggregating agent ADP 2.5 μM) stood at 68%; in assay [2] (setting [3]) it was 29%; in assay [2] (setting [4]) it was 56.7%; in assay [2] (setting [5]) it was 75.7%.

For the compound `CCN(CC)C(=O)CCCOc1ccc2[nH]c(=O)c(C)nc2c1` [Compound 967], the Inhibitory ratio in assay [1] (1 μg/ml) is 38.0%; in assay [1] (10 μg/ml), 81.0%; in assay [1] (100 μg/ml), 92.8%.

`CN(C(=O)CCCOc1ccc2c(c1)NCC(=O)N2)C1CCCCC1` [Compound 929, 6-[3-(N-cyclohexyl-N-methyl-aminocarbonyl)propoxy]-2-oxo-1,2,3,4-tetrahydroquinoxaline]: the Inhibitory ratio amounted to 11.2% in assay [1] (1 μg/ml), 53.9% in assay [1] (10 μg/ml) and 88.5% in assay [1] (100 μg/ml). The inhibition at 10 µM amounted to 49.4% in assay [2] (aggregating agent ADP 2.5 μM), 30.4% in assay [2] (setting [3]), 41.8% in assay [2] (setting [4]) and 50.8% in assay [2] (setting [5]).

With `CN(C(=O)CCCOc1ccc2[nH]c(=O)cnc2c1)C1CCCCC1` [Compound 896], the Inhibitory ratio stood at 25.5% in assay [1] (1 μg/ml), 71.5% in assay [1] (10 μg/ml) and 91.0% in assay [1] (100 μg/ml). Also, the inhibition at 10 µM in assay [2] (aggregating agent ADP 2.5 μM) was 37.2%; in assay [2] (setting [3]), 37.1%; in assay [2] (setting [4]), 31.1%; in assay [2] (setting [5]), 59.2%.

Consider `COc1ccccc1N1CCN(C(=O)CCCCOc2ccc3[nH]c(=O)cnc3c2)CC1` [Compound 924], for which the Inhibitory ratio in assay [1] (1 μg/ml) stood at 24.6%; in assay [1] (10 μg/ml), 63.5%; in assay [1] (100 μg/ml), 70.2%.

For `CCc1nc2cc(OCCCC(=O)N3CCN(c4ccccc4OC)CC3)ccc2[nH]c1=O` [Compound 973], the Inhibitory ratio in assay [1] (1 μg/ml) turned out to be 37.6%; in assay [1] (10 μg/ml) it was 42.2%.

For `O=C(CCCOc1ccc2[nH]c(=O)c(-c3ccccc3)nc2c1)N(CCO)C1CCCCC1` [Compound 987], the results for the Inhibitory ratio in assay [1] (1 μg/ml), in assay [1] (10 μg/ml) and in assay [1] (100 μg/ml) were 57.4%, 83.3% and 90.2%, respectively.

Take `CCc1nc2cc(OCCCC(=O)N(C)C3CCCCC3)ccc2[nH]c1=O` [Compound 971]: the Inhibitory ratio was 84.4% in assay [1] (1 μg/ml) and 93.0% in assay [1] (10 μg/ml).

Turning to `Cc1nc2cc(OCCCC(=O)O)ccc2[nH]c1=O` [Compound 955, 3-methyl-6-(3-carboxypropoxy)-2-oxo-1,2-dihydroquinoxaline], the Inhibitory ratio in assay [1] (1 μg/ml) was determined as 44.2%; in assay [1] (10 μg/ml), 82.3%; in assay [1] (100 μg/ml) it was 93.0%.

As to `CCOC(=O)CCCCOc1ccc2[nH]c(=O)cnc2c1` [Compound 919], the results for the Inhibitory ratio in assay [1] (1 μg/ml), in assay [1] (10 μg/ml) and in assay [1] (100 μg/ml) were 23.9%, 65.2% and 92.4%, respectively.

In the case of `CCCc1nc2cc(OCCCC(=O)N(C)C3CCCCC3)ccc2[nH]c1=O` [Compound 974], the values for the Inhibitory ratio in assay [1] (1 μg/ml) and in assay [1] (10 μg/ml) were 73.2% and 91.7%, respectively.

Regarding `CCOC(=O)CCCCOc1ccc2c(c1)NCC(=O)N2` [Compound 927], the figures for the Inhibitory ratio in assay [1] (1 μg/ml), in assay [1] (10 μg/ml) and in assay [1] (100 μg/ml) were 10.5%, 47.7% and 76.1%, respectively.

With `O=C(O)CCCOc1ccc2[nH]c(=O)cnc2c1` [Compound 938, 6-(3-carboxypropoxy)-2-oxo-1,2-dihydroquinoxaline], the Inhibitory ratio in assay [1] (1 μg/ml) came out at 17.9%; in assay [1] (10 μg/ml) it was 63.1%; in assay [1] (100 μg/ml), 88.2%.

For `Cc1nc2cc(OCCCC(=O)N(Cc3ccccc3)C3CCCCC3)ccc2[nH]c1=O` [Compound 969], the Inhibitory ratio is 72.7% in assay [1] (1 μg/ml) and 82.5% in assay [1] (10 μg/ml).

In the case of `O=C(O)CCCOc1ccc2[nH]c(=O)c(-c3ccccc3)nc2c1` [Compound 964], the Inhibitory ratio is on record as 43.8% in assay [1] (1 μg/ml), 78.8% in assay [1] (10 μg/ml) and 90.5% in assay [1] (100 μg/ml).

Regarding `CCCc1nc2cc(OCCCC(=O)O)ccc2[nH]c1=O` [Compound 957], the figures for the Inhibitory ratio in assay [1] (1 μg/ml), in assay [1] (10 μg/ml) and in assay [1] (100 μg/ml) were 71.4%, 90.7% and 94.0%, respectively.

Consider `CCOC(=O)CCCOc1ccc2[nH]c(=O)c(-c3ccccc3)nc2c1` [Compound 954], for which the Inhibitory ratio in assay [1] (1 μg/ml) was determined as 42.4%; in assay [1] (10 μg/ml) it was 54.2%.

Turning to `CCCc1nc2cc(OCCCC(=O)N(CCO)C3CCCCC3)ccc2[nH]c1=O` [Compound 975], the Inhibitory ratio in assay [1] (1 μg/ml) is reported as 59.5%; in assay [1] (10 μg/ml) it was 88.9%; in assay [1] (100 μg/ml), 93.5%.

As for `COc1ccccc1N1CCN(C(=O)CCCOc2ccc3[nH]c(=O)c(C)nc3c2)CC1` [Compound 968], the Inhibitory ratio in assay [1] (1 μg/ml) is listed as 17.1%; in assay [1] (10 μg/ml), 60.3%.

Regarding `CCCCCCc1nc2cc(OCCCC(=O)N(CCO)C3CCCCC3)ccc2[nH]c1=O` [Compound 978], the values for the Inhibitory ratio in assay [1] (1 μg/ml) and in assay [1] (10 μg/ml) were 26.2% and 40.1%, respectively.

Turning to `Cc1nc2cc(OCCCC(=O)N(C)C3CCCCC3)ccc2[nH]c1=O` [Compound 965], the figures for the Inhibitory ratio in assay [1] (1 μg/ml) and in assay [1] (10 μg/ml) were 68.9% and 87.3%, respectively.

Turning to `CCCCCCc1nc2cc(OCCCC(=O)O)ccc2[nH]c1=O` [Compound 959], the values for the Inhibitory ratio in assay [1] (1 μg/ml), in assay [1] (10 μg/ml) and in assay [1] (100 μg/ml) were 43.4%, 80.5% and 91.0%, respectively.

Regarding `CCCCCCc1nc2cc(OCCCC(=O)OCC)ccc2[nH]c1=O` [Compound 949], the Inhibitory ratio is recorded as 40.9% in assay [1] (1 μg/ml) and 53.7% in assay [1] (10 μg/ml).

On to `CCCCc1nc2cc(OCCCC(=O)N(C)C3CCCCC3)ccc2[nH]c1=O` [Compound 976], for which the Inhibitory ratio in assay [1] (1 μg/ml) is 51.1%; in assay [1] (10 μg/ml) it was 84.5%.

On to `CCN(CC)C(=O)CCCOc1ccc2[nH]c(=O)c(-c3ccccc3)nc2c1` [Compound 988], for which the Inhibitory ratio in assay [1] (1 μg/ml) turned out to be 46.4%; in assay [1] (10 μg/ml), 76.9%.

With `CCCCc1nc2cc(OCCCC(=O)O)ccc2[nH]c1=O` [Compound 958], the Inhibitory ratio was found to be 69.9% in assay [1] (1 μg/ml), 91.4% in assay [1] (10 μg/ml) and 93.7% in assay [1] (100 μg/ml).

In the case of `CCCCCCCCCc1nc2cc(OCCCC(=O)O)ccc2[nH]c1=O` [Compound 960], the results for the Inhibitory ratio in assay [1] (1 μg/ml), in assay [1] (10 μg/ml) and in assay [1] (100 μg/ml) were 34.8%, 61.7% and 87.4%, respectively.

Consider `CCCCc1nc2cc(OCCCC(=O)OCC)ccc2[nH]c1=O` [Compound 948], for which the Inhibitory ratio in assay [1] (1 μg/ml) is reported as 62.9%; in assay [1] (10 μg/ml), 87.9%; in assay [1] (100 μg/ml), 92.7%.

Regarding `O=c1cnc2cc(OCCCCc3nnnn3C3CCCCC3)ccc2[nH]1` [Compound 913, 6-[4-(1-cyclohexyl-tetrazole-5-yl)-butoxy]-2-oxo-1,2-dihydroquinoxaline], the Inhibitory ratio in assay [1] (1 μg/ml) is listed as 19.2%; in assay [1] (10 μg/ml) it was 80.3%.

Turning to `Cc1nc2cc(OCCCC(=O)N3CCC(c4ccccc4)CC3)ccc2[nH]c1=O` [Compound 970], the Inhibitory ratio in assay [1] (1 μg/ml) was 24.1%; in assay [1] (10 μg/ml), 51.5%.

As for `O=C(CCCCOc1ccc2[nH]c(=O)cnc2c1)N(Cc1ccccc1)C1CCCCC1` [Compound 922], the Inhibitory ratio in assay [1] (1 μg/ml) turned out to be 61.7%; in assay [1] (10 μg/ml), 88.1%; in assay [1] (100 μg/ml), 91.1%.

As for `CCOC(=O)CCCOc1ccc2[nH]c(=O)cnc2c1` [Compound 914, 6-(3-ethoxycarbonylpropoxy)-2-oxo-1,2-dihydroquinoxaline], the Inhibitory ratio in assay [1] (1 μg/ml) came to 18.1%; in assay [1] (10 μg/ml) it was 34.3%; in assay [1] (100 μg/ml), 54.4%.

As to `CCc1nc2cc(OCCCC(=O)O)ccc2[nH]c1=O` [Compound 956], the results for the Inhibitory ratio in assay [1] (1 μg/ml), in assay [1] (10 μg/ml) and in assay [1] (100 μg/ml) were 83.9%, 92.9% and 95.0%, respectively.

For the compound `O=C(CCCOc1ccc2[nH]c(=O)cnc2c1)N(Cc1ccccc1)C1CCCCC1` [Compound 916], the Inhibitory ratio in assay [1] (1 μg/ml) was 47.3%; in assay [1] (10 μg/ml) it was 78.0%; in assay [1] (100 μg/ml) it was 85.7%.

For the compound `COc1ccccc1N1CCN(C(=O)CCCOc2ccc3[nH]c(=O)cnc3c2)CC1` [Compound 918], the Inhibitory ratio turned out to be 19.8% in assay [1] (1 μg/ml), 61.0% in assay [1] (10 μg/ml) and 87.9% in assay [1] (100 μg/ml).
